# How the values were obtained:
# human PTP1B = target: T1, human PTP1B (Homo sapiens, UniProt P18031); assay: PTP1B inhibition assay (pNPP substrate, UV absorption); format: biochemical; conditions: for inhibition at 10 µM: PTP1B inhibition at 10 μM, performed in triplicate
# T1 construct: purchased Sigma
# T1 sequence (P18031 1-435): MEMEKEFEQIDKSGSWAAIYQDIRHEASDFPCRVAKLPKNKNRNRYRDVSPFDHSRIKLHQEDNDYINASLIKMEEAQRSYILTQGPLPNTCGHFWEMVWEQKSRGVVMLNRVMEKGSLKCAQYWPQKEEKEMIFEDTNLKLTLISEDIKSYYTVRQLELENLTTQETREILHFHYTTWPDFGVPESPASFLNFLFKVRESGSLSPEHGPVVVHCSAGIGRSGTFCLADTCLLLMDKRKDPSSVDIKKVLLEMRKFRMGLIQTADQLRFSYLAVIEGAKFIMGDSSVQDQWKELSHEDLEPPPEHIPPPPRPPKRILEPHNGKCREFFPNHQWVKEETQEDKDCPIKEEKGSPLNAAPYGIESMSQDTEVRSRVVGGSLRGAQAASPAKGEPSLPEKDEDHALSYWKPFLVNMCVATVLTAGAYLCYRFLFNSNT
# Description: The inhibitory assay was performed using human PTP1B (purchased from Sigma) and p-nitrophenylphosphate (pNPP) as substrate by UV absorption. 400 nmol pNPP were dissolved in H2O and 48 μL of the solution was added to a 100 μL reaction. The indicated amount of synthetic compounds was diluted in DMSO at a concentration of 5 mM. The PTP1B was diluted in pH 7.2 buffer contained 50 mM HEPES, 3 mM dithiothreitol, 2 mM EDTA and 100 mM NaCl. About 50 μL PTP1B dilution was added, and the mixture incubated at 37 °C for 30 min. 1N NaOH was added to terminate the reaction. UV–Vis absorption was detected at 410 nm using a Tecan Infinite M1000 plate reader.
# HepG2 cells = assay: Cell viability in the MTT assay; format: cell-based, human; conditions: 40 μM compound, 24 h
# Description: Cell viability in the MTT assay
# The toxicities of the compounds were evaluated by (3-(4, 5-dimethylthiazolyl-2)-2, 5-diphenyltetrazolium bromide) test. HepG2 cells were routinely grown in Dulbecco's Modified Eagle Medium (DMEM) supplemented with 10% (v/v) fetal bovine serum, streptomycin ([…]), and penicillin (100U/mL), in a humidified atmosphere of 95% air, 5% CO2 at 37°C. HepG2 cells were planked in a 96 well plate with a concentration of 1×10^4 cells/well and cultured in 37°C and 5%CO2 for 24 h. Then HepG2 cells were treated with 40 μM of the synthetic compound. HepG2 cells untreated were used as control. HepG2 cells were cultured in 37℃ and 5%CO2 for 24 h, the old medium was carefully removed and were cultured for another 4 h in MTT (0.5%) containing DMEM, then the medium was carefully removed. 150 µL/well dimethyl sulfoxide was added and oscillated gently to make crystal dissolved. The absorbance at 560 nm was measured using a microplate reader. The cell […]
# Fig. S1. Cell viability in the MTT assay.
# (1 picture or pasted object on this page, not shown here)
# NIDDM mice = format: in vivo; conditions: for Antihyperglycaemic effect (plasma glucose): male Kunming mice, 100 mg/kg intraperitoneally, glucose at 0-4 h, n = 8
# Description: The antihyperglycaemic effect of the compounds 15, 25 and C10a were evaluated on non-insulin dependent diabetes mellitus (NIDDM) mice. Nicotinamide and streptozotocin were administrated intraperitoneally to induce hyperglycaemia and the plasma glucose of mice raised over 4.5 mmol/L[45].
# Figure 5. The antihyperglycaemic effect in NIDDM mice (n = 8). […] M group: NIDDM mice were treated with saline alone. Y group: NIDDM mice were treated with rosiglitazone.
# During the experiment, the male Kunming mice with 25–30 g body weight were fasted but received water prior to induction of diabetes. 110 mg/kg of nicotinamide and 65 mg/kg of streptozotocin (Macklin in Biochemical Technology Co., Ltd., Shanghai, China) were dissolved in pH 4.5 citrate buffer and intraperitoneally administrated to induce NIDDM mice model. The mice were intraperitoneally administered with a compound or rosiglitazone (100 mg/kg) dissolved in saline containing 1% DMSO and 10% Tween 80. Hyperglycaemia was confirmed by a plasma glucose increase of more than 4.5 mmol/L measured by a blood glucose metre (Sinocare GA-3, Changsha, China). Glucose concentrations from the tail of the mice were measured at 0, 0.5, 1, 2, 3 and 4 h by the blood glucose metre. Calculate the percentage of blood glucose by using the following formula: variation of glycaemia% = (AX − A0)/A0 × 100% (AX: blood glucose at selected time; A0: initial blood glucose).
# PTP1B = test system: PTP1B; parameters: method as in PMID 20964318; conditions: cited from earlier work
# [1] = test system: insulin-resistant HepG2 cells; assay: Glucose uptake / glucose consumption in insulin-resistant HepG2 cells; format: cell-based, human; conditions: HepG2 induced with 1.5 × 10^−5 mmol insulin for 36 h; compound 40 μM or rosiglitazone 10 μM for 24 h; glucose oxidase method
# Description: To assess the insulin sensitisation, the cellular effect of these compounds on insulin-resistant human hepatoma HepG2 cells was performed. The concentration of insulin and induction time were screened to induce insulin resistance in HepG2 cells according to the reported method[41]^,[42] with some modification. As shown in Figure 4(A), treatment with above 1 × 10^−5 mmol of insulin reduced glucose uptake, whereas treatment with 6 × 10^−6 mmol of insulin enhanced glucose uptake. […] As shown in Figure 4(B), insulin resistance was induced in HepG2 cells at 36 h, and rosiglitazone can decrease the insulin resistance. […]
# Figure 4. […] After incubation, glucose content in the culture medium was measured by glucose oxidase method. […]
# HepG2 cells were grown in DMEM with 10% foetal bovine serum, […] of streptomycin, and 100 U/mL of penicillin, in a humidified atmosphere of 5% CO2 at 37 °C. […] After cultivation, the glucose content was determined by the glucose oxidase method (the glucose analysis kit was purchased from Rongsheng Biopharmaceutical Co., Ltd., Shanghai, China). […] The absorbance was measured at 506 nm using a microplate reader (SpectraMax i3x, Molecular Devices). The residual glucose concentration is expressed as AX/A0 × 5.55 mmol/L (AX: OD value of sample; A0: OD value of glucose standard solution).
SMILES,inhibition at 10 µM (human PTP1B),melting point,also measured
"CC(C)C1=CC2=CC[C@@H]3[C@](C)(CCC[C@@]3(C)C(=O)O)[C@H]2CC1 [Compound 1, abietic acid]",35%,,
CC(C)C1=CC2=CCC3C(C)(CO)CCCC3(C)C2CC1 (stereo not drawn) [Compound 9],3%,,
Cc1ccc(S(=O)(=O)OCC2(C)CCCC3(C)C4CCC(C(C)C)=CC4=CCC23)cc1 (stereo not drawn) [Compound 10],2%,67 to 68 °C,
CC(C)C1=CC2=CCC3C(C)(C)CCCC3(C)C2CC1 (stereo not drawn) [Compound 11],0%,,
"CC(C)(O)c1ccc2c(c1)CCC1C(C)(C)CCCC21C (stereo not drawn) [Compound 13, 15-Hydroxydehydroabietane]",22%,,
"CC1(C)CCCC2(C)c3ccc(O)cc3CCC12 (stereo not drawn) [Compound 14, 13-Hydroxy-8,11,13-podocarpatriene]",15%,145 to 146 °C,
CC1(C)CCC2(COC(=O)c3ccccc3C(=O)O)CCC3(C)C(=CCC4C5(C)CCC(=O)C(C)(C)C5CCC43C)C2C1 (stereo not drawn) [Compound C10a],,,"Cytotoxicity (HepG2 cells): considerable cytotoxicity and High; Antihyperglycaemic effect (plasma glucose) (NIDDM mice): showed the antihyperglycaemic effect; Acute toxicity observations in treated mice (NIDDM mice; mouse, in vivo, ip): hydroabdomen, thrombus and tail necrosis; IC50 (human PTP1B; values from the text, quantity type not printed there (Table 2 is an image), read-out: PTP1B enzymatic inhibitory activities): 3.1 µM; IC50 (PTP1B; previous work, read-out: PTP1B inhibition IC50): 3.12 µM; PTP1B inhibition, fold more than the parent compound OA (PTP1B; versus OA): 7.6 fold"
CN(CCOc1ccc(CC2SC(=O)NC2=O)cc1)c1ccccn1 (stereo not drawn) [rosiglitazone],,,Antihyperglycaemic effect (plasma glucose) (NIDDM mice): significant antihyperglycaemic effect after 1 h; Effect on glucose consumption / insulin-stimulated glucose uptake [1]: significantly decrease the insulin resistance and improve the glucose uptake

# Continued, in another order:
inhibition at 10 µM (human PTP1B),melting point,SMILES,also measured
19%,92 to 93 °C,"CC(C)(O)c1ccc2c(c1)CC[C@H]1[C@](C)(C(=O)O)CCC[C@]21C [Compound 3, 15-Hydroxydehydroabieta-18-oic acid]",
4%,51 to 52 °C,"CCOC(=O)[C@]1(C)CCC[C@]2(C)c3ccc(C(C)(C)O)cc3CCC12 (stereo partly drawn) [Compound 4a, Ethyl 15-hydroxydehydroabietate]",
0%,,"CC(C)(O)c1ccc2c(c1)CCC1[C@](C)(CO)CCC[C@]21C (stereo partly drawn) [Compound 5, 1-Hydroxylmethyl-15-hydroxydehydroabietate]",
1%,101 to 102 °C,"C[C@@]1(C(=O)O)CCC[C@]2(C)c3ccc(O)cc3CCC12 (stereo partly drawn) [Compound 7, 13-hydroxy-8,11,13-podocarpatriene-1-carboxylic acid]",
,72 to 73 °C,C[C@@]1(C(=O)O)CCC[C@]2(C)c3ccc(OCCOC(=O)c4ccccc4C(=O)O)cc3CCC12 (stereo partly drawn) [Compound 15],
,138 to 139 °C,C[C@@]1(C(=O)O)CCC[C@]2(C)c3ccc(OCCOC(=O)c4ccccc4)cc3CCC12 (stereo partly drawn) [Compound 25],
,126 to 127 °C,C[C@@]1(C(=O)O)CCC[C@]2(C)c3ccc(OCCOC(=O)c4ccccc4N)cc3CCC12 (stereo partly drawn) [Compound 28],
,189 to 190 °C,C[C@@]1(C(=O)O)CCC[C@]2(C)c3ccc(OCCOC(=O)c4ccc5cc(C(=O)O)ccc5c4)cc3CCC12 (stereo partly drawn) [Compound 34],

# Reference: article PMC6882489, “Design and synthesis of tricyclic terpenoid derivatives as novel PTP1B inhibitors with improved pharmacological property and in vivo antihyperglycaemic efficacy” (Journal of Enzyme Inhibition and Medicinal Chemistry, 2019)
